The term IC50 denotes the midpoint of a concentration-inhibition curve.

Data set [1] addresses Programmed cell death protein 1/Programmed cell death 1 ligand 1 (Homo sapiens, UniProt Q9NZQ7). The data set is described as follows: Inhibition of interaction of PD-1/PD-L1 (unknown origin) by HTRF analysis. In kind it is protein-complex assay. For orientation: TR-FRET usually uses a lanthanide donor and a delayed reading to cut background.
Data set [2] deals with T1, Programmed cell death protein 1/Programmed cell death 1 ligand 1 (Homo sapiens) (UniProt Q15116+Q9NZQ7). Nature of the data set: Inhibition of PD-1/PD-L1 (unknown origin) interaction in human PBMC cells assessed as increase in IFN-gamma level at 100 nM pretreated with anti-CD3/CD28 and PD-L1 followed by compound addition measured after 72 hrs by ELISA. The data set is classed as cell-based. For orientation: An ELISA detects its analyte on a solid surface through an enzyme-linked reagent.

Data set [3] is described as follows: Cytotoxicity against human PBMC cells assessed as inhibition of cell viability by CCK8 assay. In kind it is toxicity, cell-based. On the technique in general: Formazan colour is commonly taken as a measure of viable cells.
In data set [4] the target is T1, Programmed cell death protein 1/Programmed cell death 1 ligand 1 (Homo sapiens). The data set is described as follows: Inhibition of PD-1/PD-L1 (unknown origin) interaction in human PBMC cells assessed as increase in IFN-gamma level at 100 to 1000 nM pretreated with anti-CD3/CD28 and PD-L1 followed by compound addition measured after 72 hrs by ELISA. The data set is classed as cell-based. The settings on record: dose 100-1000 nM.

Data set [5] is described as follows: Cytotoxicity against human PBMC cells assessed as inhibition of cell viability at 50 to 5000 nM by CCK8 assay. The note with it: 5 µM, dose 50-5000 nM. In kind it is toxicity, cell-based.

Each structure is given as a SMILES string. Active and inactive are the calls of the source. The calls are words filed in the database; no cut-off is given here.

Chain of Programmed cell death protein 1/Programmed cell death 1 ligand 1 (Q15116 whole entry): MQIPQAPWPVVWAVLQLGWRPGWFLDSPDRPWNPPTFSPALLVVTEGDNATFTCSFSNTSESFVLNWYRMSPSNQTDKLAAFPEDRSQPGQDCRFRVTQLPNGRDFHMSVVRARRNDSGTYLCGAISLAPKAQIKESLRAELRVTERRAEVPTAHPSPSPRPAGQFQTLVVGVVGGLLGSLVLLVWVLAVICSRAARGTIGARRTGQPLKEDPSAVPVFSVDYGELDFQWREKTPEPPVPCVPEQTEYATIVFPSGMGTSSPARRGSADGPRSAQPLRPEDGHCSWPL
Chain of Programmed cell death protein 1/Programmed cell death 1 ligand 1 (Q9NZQ7 whole entry): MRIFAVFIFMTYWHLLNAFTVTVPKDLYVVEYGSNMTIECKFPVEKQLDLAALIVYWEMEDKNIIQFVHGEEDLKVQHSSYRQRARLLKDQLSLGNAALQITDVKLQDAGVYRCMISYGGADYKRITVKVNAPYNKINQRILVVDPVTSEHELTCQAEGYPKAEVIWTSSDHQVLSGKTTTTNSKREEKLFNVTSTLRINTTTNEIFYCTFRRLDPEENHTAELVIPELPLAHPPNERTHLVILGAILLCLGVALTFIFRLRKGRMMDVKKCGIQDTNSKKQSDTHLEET

`C[C@H](N)C(=O)N1Cc2ccc(-c3cccc(-c4ccc5c(c4)OCCO5)c3C#N)cc2C1` had an IC50 in data set [1] of 24.5 nM.
Turning to `Cc1c(-c2ccccc2)cccc1-c1ccc2c(c1)C(=O)NC2=O`, the IC50 in data set [1] was more than 10000 nM.
For the compound `Cc1c(-c2ccccc2)cccc1-c1ccc2c(c1)CN(C(=O)CN)C2`, in data set [1], the IC50 stood at 293 nM.
`C[C@H](N)C(=O)N1Cc2ccc(-c3cccc(-c4ccccc4)c3Cl)cc2C1`: the IC50 in data set [1] is 12.9 nM.
The compound `Cc1c(-c2ccccc2)cccc1-c1ccc2c(c1)CN(C(=O)[C@H]1NCCC1O)C2` (stereo not given in full) had an IC50 in data set [1] of 24.2 nM.
On to `c1ccc(-c2cccc(-c3ccc4c(c3)CNC4)c2)cc1`, for which, in data set [1], the IC50 is more than 10000 nM.
As for `Cc1c(-c2ccccc2)cccc1-c1ccc2c(c1)CN(C(=O)[C@@H](N)CCCCN)C2`, in data set [1], the IC50 amounted to 539 nM.
The same measure, in the same setting: next, `Cc1c(-c2ccccc2)cccc1-c1ccc2c(c1)CN(C(=O)[C@@H](N)CO)C2`: 94.8 nM.
For `Clc1c(-c2ccccc2)cccc1-c1ccc2c(c1)CNC2`, the inhibition result in data set [2] was “Active”. The half-maximal inhibitory concentration (IC50) was more than 5000 nM in data set [3] and 9.4 nM in data set [1].
Regarding `C[C@H](N)C(=O)N1Cc2ccc(-c3cccc(-c4ccccc4)c3C#N)cc2C1`, the IC50 in data set [1] is 50 nM.
`Nc1c(-c2ccccc2)cccc1-c1ccc2c(c1)CNC2` gave an IC50 in data set [1] of 194 nM.
Turning to `Cl.Clc1c(-c2ccc3c(c2)CNC3)cccc1-c1ccc2c(c1)OCCO2`, in data set [4], the inhibition entry is “inactive”. In addition, in data set [5], the Activity result is “Toxic”. This compound returned an IC50 in data set [1] of 5.9 nM.
In turn, `COc1c(-c2ccccc2)cccc1-c1ccc2c(c1)CNC2` showed an IC50 in data set [1] of 115 nM.
Consider `N#Cc1c(-c2ccc3c(c2)CNC3)cccc1-c1ccc2c(c1)OCCO2`, for which half-maximal inhibition in data set [1] (IC50) was put at 18.5 nM.
In the case of `O=C([C@@H]1CCCCN1)N1Cc2ccc(-c3cccc(-c4ccccc4)c3Cl)cc2C1`, the IC50 in data set [1] was determined as 11.4 nM.
In turn, `Oc1c(-c2ccccc2)cccc1-c1ccc2c(c1)CNC2` registered an IC50 in data set [1] of more than 10000 nM.
`Cc1c(-c2ccc3c(c2)CNC3)cccc1-c1ccc2c(c1)OCCO2` displayed an IC50 in data set [1] of 35.8 nM.
`N#Cc1c(-c2ccccc2)cccc1-c1ccc2c(c1)CN(C(=O)[C@@H]1CCCCN1)C2`: the IC50 in data set [1] turned out to be 64.2 nM.
In data set [1], `N#Cc1c(-c2ccccc2)cccc1-c1ccc2c(c1)CNC2` returned an IC50 of 47.6 nM.
For the compound `Cc1c(-c2ccccc2)cccc1-c1ccc2c(c1)CN(C(=O)[C@@H]1C[C@H](O)CN1)C2`, half-maximal inhibition in data set [1] (IC50) was put at 84.5 nM.
Take `NCC(=O)N1Cc2ccc(-c3cccc(-c4ccccc4)c3Cl)cc2C1`: the IC50 in data set [1] came to 90.3 nM.
Consider `O=C([C@@H]1CCCN1)N1Cc2ccc(-c3cccc(-c4ccc5c(c4)OCCO5)c3Cl)cc2C1`, for which the IC50 in data set [3] was more than 5000 nM; in data set [1] it was 15.6 nM.
In data set [1], `O=C([C@@H]1CCCCN1)N1Cc2ccc(-c3cccc(-c4ccc5c(c4)OCCO5)c3Cl)cc2C1` returned an IC50 of 26.2 nM.
Consider `Cc1c(-c2ccccc2)cccc1-c1ccc2c(c1)CN(C(=O)[C@@H]1CCCCN1)C2`, for which the IC50 in data set [1] was 19.3 nM.
For the compound `N#Cc1c(-c2ccccc2)cccc1-c1ccc2c(c1)CNC2=O`, in data set [1], the IC50 amounted to 145 nM.
As to `N#Cc1c(-c2ccccc2)cccc1-c1ccc2c(c1)CN(C(=O)[C@@H]1CCCN1)C2`, the IC50 in data set [1] came out at 85.7 nM.
For `COC(=O)C[C@H](N)C(=O)N1Cc2ccc(-c3cccc(-c4ccccc4)c3C)cc2C1`, the IC50 in data set [1] was found to be 416 nM.
With `O=C([C@@H]1CCCN1)N1Cc2ccc(-c3cccc(-c4ccccc4)c3Cl)cc2C1`, in data set [1], the IC50 turned out to be 17.9 nM.
Same read-out and setting: next, `Fc1c(-c2ccccc2)cccc1-c1ccc2c(c1)CNC2`: 95.6 nM; `N#Cc1c(-c2ccccc2)cccc1-c1ccc2c(c1)C(=O)NC2=O`: more than 10000 nM; `N#Cc1c(-c2ccccc2)cccc1-c1ccc2c(c1)C(=O)NC2`: 1520 nM.
Consider `Cc1c(-c2ccccc2)cccc1-c1ccc2c(c1)CN(C(=O)[C@H](C)N)C2`, for which, in data set [1], 30.4 nM corresponded to half-maximal inhibition (IC50).
Regarding `Cc1c(-c2ccccc2)cccc1-c1ccc2c(c1)CN(C(=O)[C@@H]1CCCN1)C2`, the midpoint of inhibition in data set [1], the IC50, lay at 7.1 nM.
`Cc1c(-c2ccccc2)cccc1-c1ccc2c(c1)CN(C(=O)[C@@H](N)CC(=O)O)C2` showed a half-inhibitory concentration (IC50) in data set [1] of 142 nM.
On to `Clc1c(-c2ccc3c(c2)CNC3)cccc1-c1ccc2nonc2c1`, for which half-maximal inhibition in data set [1] (IC50) was put at 880 nM.

The record behind these values is ChEMBL document CHEMBL6109137, “Design, Synthesis, Evaluation, and SAR of 5-Phenylisoindoline Derivatives, a Potent Class of Small-Molecule Inhibitors Targeting the Programmed Cell Death-1/Programmed Cell Death-Ligand 1 (PD-1/PD-L1) Interaction” (J Med Chem, 2025).
